Like-named read-outs stand apart in the source and are kept apart here.
Columns and labels:
[1] = molecular target: T1, human recombinant adrenergic α1D receptor (Homo sapiens, UniProt P25100); assay: Radioligand binding, adrenergic α1D ([3H]Prazosin); details: compound at 0.1 μM; for Percentage inhibition of ligand binding, Adrenergic α1D (0.1 μM): repeat datapoints each shown
T1 construct: expressed in transfected cells; host or cells: HEK-293
T1 sequence (P25100 1-572): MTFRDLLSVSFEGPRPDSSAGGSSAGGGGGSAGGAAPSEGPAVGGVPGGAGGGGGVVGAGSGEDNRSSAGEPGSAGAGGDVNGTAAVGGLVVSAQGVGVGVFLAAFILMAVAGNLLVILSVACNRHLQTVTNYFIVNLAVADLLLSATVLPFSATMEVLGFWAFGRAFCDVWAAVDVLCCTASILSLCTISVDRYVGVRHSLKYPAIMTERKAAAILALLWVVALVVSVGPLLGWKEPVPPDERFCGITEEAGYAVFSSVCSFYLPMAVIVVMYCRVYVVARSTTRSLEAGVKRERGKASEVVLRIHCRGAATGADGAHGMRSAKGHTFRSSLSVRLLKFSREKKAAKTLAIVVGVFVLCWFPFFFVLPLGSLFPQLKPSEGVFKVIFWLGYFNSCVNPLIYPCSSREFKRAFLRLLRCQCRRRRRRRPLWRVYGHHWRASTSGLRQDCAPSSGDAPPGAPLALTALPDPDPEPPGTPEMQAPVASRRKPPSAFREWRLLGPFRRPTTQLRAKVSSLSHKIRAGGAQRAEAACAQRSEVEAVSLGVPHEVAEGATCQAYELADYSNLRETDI
Procedure: Compounds were incubated with 0.6 nM [^3H]Prazosin for 60 min at 25° C. Non-specific binding was estimated in the presence of 10 μM phentolamine. Receptor proteins were filtered and washed, the filters were then counted to determine [^3H]Prazosin specifically bound. […] Biochemical assay results are presented as the percent inhibition of specific binding in Table B1.

[2] = molecular target: T2, rat adrenergic α1B receptor (Rattus norvegicus, UniProt P15823); assay: Radioligand binding, adrenergic α1B ([3H]Prazosin); set-up: species or system Wistar Rat; details: for Percentage inhibition of ligand binding, Adrenergic α1B (0.1 μM): repeat datapoints each shown
T2 construct: rat adrenergic α1B receptor obtained from Wistar Rat liver; from tissue; host or cells: Wistar rat liver
T2 sequence (P15823 1-515): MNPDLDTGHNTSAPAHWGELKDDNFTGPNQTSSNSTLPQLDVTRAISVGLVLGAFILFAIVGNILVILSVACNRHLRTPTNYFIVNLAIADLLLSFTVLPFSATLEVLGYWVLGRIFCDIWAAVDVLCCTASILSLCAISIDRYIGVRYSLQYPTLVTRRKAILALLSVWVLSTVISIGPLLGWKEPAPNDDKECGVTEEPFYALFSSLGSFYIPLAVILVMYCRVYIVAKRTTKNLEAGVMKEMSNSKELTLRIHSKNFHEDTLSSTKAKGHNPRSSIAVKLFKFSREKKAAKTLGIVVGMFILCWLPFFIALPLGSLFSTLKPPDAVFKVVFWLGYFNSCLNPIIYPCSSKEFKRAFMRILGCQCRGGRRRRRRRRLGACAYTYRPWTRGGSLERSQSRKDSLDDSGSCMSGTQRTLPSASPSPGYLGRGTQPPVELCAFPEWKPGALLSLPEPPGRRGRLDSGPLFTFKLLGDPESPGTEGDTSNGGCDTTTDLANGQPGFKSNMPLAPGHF
Procedure, shortened: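 Specific binding, taken as total minus that remaining with 10 μM phentolamine, is measured after filtration and counting. Rat liver receptor preparation and 0.25 nM [3H]prazosin are incubated with compound in 50 mM Tris-HCl (pH 7.4, 0.5 mM EDTA) at 25° C for 60 min. Activity is reported as percent inhibition.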

[3] = molecular target: T3, human recombinant adrenergic α2B receptor (Homo sapiens, UniProt P18089); assay: Radioligand binding, adrenergic α2B ([3H]Rauwolscine)
T3 construct: expressed in transfected cells; host or cells: CHO-K1
T3 sequence (P18089 1-450): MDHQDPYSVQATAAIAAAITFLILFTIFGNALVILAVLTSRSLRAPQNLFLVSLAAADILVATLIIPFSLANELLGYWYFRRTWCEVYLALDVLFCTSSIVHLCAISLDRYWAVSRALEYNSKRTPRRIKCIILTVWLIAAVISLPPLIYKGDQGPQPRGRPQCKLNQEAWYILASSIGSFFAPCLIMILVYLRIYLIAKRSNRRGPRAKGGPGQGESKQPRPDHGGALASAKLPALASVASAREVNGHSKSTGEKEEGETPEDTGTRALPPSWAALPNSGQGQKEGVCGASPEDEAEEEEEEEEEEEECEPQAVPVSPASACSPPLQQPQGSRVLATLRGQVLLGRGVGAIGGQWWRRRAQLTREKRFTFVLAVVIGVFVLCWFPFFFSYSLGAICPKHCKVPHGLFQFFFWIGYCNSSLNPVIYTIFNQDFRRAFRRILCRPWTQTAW
Procedure, shortened: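 Values are percent inhibition of specific radioligand binding. The receptor, expressed in CHO-K1 cells, was exposed to 2.5 nM [3H]Rauwolscine at 25° C for 60 min, with 10 μM Prazosin marking non-specific binding.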

[4] = molecular target: T4, human recombinant adrenergic α2A receptor (Homo sapiens, UniProt P08913); assay: Radioligand binding, adrenergic α2A ([3H]MK-912); details: [3H]MK-912
T4 construct: expressed in transfected cells; host or cells: insect Sf9 cells
T4 sequence (P08913 1-465): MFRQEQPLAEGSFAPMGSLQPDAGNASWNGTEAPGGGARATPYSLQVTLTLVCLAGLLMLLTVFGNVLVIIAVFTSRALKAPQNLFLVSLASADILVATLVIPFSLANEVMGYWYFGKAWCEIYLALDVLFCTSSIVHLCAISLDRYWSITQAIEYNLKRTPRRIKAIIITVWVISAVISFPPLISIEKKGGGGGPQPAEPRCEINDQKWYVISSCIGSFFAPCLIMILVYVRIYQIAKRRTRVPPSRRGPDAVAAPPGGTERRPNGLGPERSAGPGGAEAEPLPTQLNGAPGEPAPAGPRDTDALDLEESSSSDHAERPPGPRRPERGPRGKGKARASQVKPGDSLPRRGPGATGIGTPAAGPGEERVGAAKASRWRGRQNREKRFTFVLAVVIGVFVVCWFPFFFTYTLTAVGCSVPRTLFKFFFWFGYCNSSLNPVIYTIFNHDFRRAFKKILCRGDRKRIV
Procedure, shortened: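 Sf9 membranes, 1 nM [3H]MK-912, 60 min, 25 °C, Tris-HCl pH 7.4/MgCl2/EDTA buffer. NSB: 10 μM WB-4101. Filtration, counting; % inhibition of specific binding.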

[5] = compound at 0.1 μM, repeat datapoints each shown, 0.1 µM
[6] = compound at 0.1 μM, repeat datapoints each shown

CCCCC(O)(Cn1c2c(c3cc(Cl)ccc31)CN(C)CC2)c1ccc(F)cc1 (single isomer, unassigned) [33a]
Percentage inhibition of ligand binding, Adrenergic α1D (0.1 μM) ([1]; 0.1 µM): 23% | Percentage inhibition of ligand binding, Adrenergic α1B (0.1 μM) ([2]; compound at 0.1 μM, 0.1 µM): −2% | Percentage inhibition of ligand binding, Adrenergic α2B (0.1 μM) [3, 5]: −3%

CCCCC(O)(Cn1c2c(c3cc(Cl)ccc31)CN(C)CC2)c1ccc(F)cc1 (single isomer, unassigned) [33b]
Percentage inhibition of ligand binding, Adrenergic α1D (0.1 μM) ([1]; 0.1 µM): 14% | Percentage inhibition of ligand binding, Adrenergic α1B (0.1 μM) ([2]; compound at 0.1 μM, 0.1 µM): 0% | Percentage inhibition of ligand binding, Adrenergic α2B (0.1 μM) [3, 5]: 2% | Percentage inhibition of ligand binding, Adrenergic α2A (0.1 μM) [4, 6]: −7%

CCC(O)(Cn1c2c(c3cc(C)ccc31)CN(C)CC2)c1ccc(F)cc1 (single isomer, unassigned) [34b]
Percentage inhibition of ligand binding, Adrenergic α1D (0.1 μM) ([1]; 0.1 µM): 13% | Percentage inhibition of ligand binding, Adrenergic α1B (0.1 μM) ([2]; compound at 0.1 μM, 0.1 µM): −2% | Percentage inhibition of ligand binding, Adrenergic α2B (0.1 μM) [3, 5]: 1% | Percentage inhibition of ligand binding, Adrenergic α2A (0.1 μM) [4, 5]: 3%

CC(Cn1c2c(c3ccccc31)CN(C)CC2)c1ccc(F)cc1 (single isomer, unassigned) [272a]
Percentage inhibition of ligand binding, Adrenergic α1D ([1]; 0.1 µM): 12% | Percentage inhibition of ligand binding, Adrenergic α1B ([2]; compound at 0.1 μM, 0.1 µM): 27% | Percentage inhibition of ligand binding, Adrenergic α2B ([3]; compound at 0.1 μM): −10% | Percentage inhibition of ligand binding, Adrenergic α2A ([4]; compound at 0.1 μM, 0.1 µM): 33%

CC(Cn1c2c(c3ccccc31)CN(C)CC2)c1ccc(F)cc1 (single isomer, unassigned) [272b]
Percentage inhibition of ligand binding, Adrenergic α1D ([1]; 0.1 µM): 36% | Percentage inhibition of ligand binding, Adrenergic α1B ([2]; compound at 0.1 μM, 0.1 µM): 30% | Percentage inhibition of ligand binding, Adrenergic α2A ([4]; compound at 0.1 μM, 0.1 µM): 68%

Cc1ccc2c(c1)c1c(n2CC(C)c2ccc(F)cc2)CCN(C)C1 (single isomer, unassigned) [288a]
Percentage inhibition of ligand binding, Adrenergic α1D ([1]; 0.1 µM): 88% | Percentage inhibition of ligand binding, Adrenergic α2B ([3]; compound at 0.1 μM): 104%

Cc1ccc2c(c1)c1c(n2CC(C)c2ccc(F)cc2)CCN(C)C1 (single isomer, unassigned) [288b]
Percentage inhibition of ligand binding, Adrenergic α1D ([1]; 0.1 µM): 17% | Percentage inhibition of ligand binding, Adrenergic α1B ([2]; compound at 0.1 μM): 39% | Percentage inhibition of ligand binding, Adrenergic α2A ([4]; compound at 0.1 μM): 67%

Cc1ccc2c(c1)c1c(n2CC(C)c2ccc(C)nc2)CCN(C)C1 (single isomer, unassigned) [289a]
Percentage inhibition of ligand binding, Adrenergic α1D ([1]; 0.1 µM): 57% | Percentage inhibition of ligand binding, Adrenergic α1B ([2]; compound at 0.1 μM, 0.1 µM): 51% | Percentage inhibition of ligand binding, Adrenergic α2A ([4]; compound at 0.1 μM, 0.1 µM): 60%

Cc1ccc2c(c1)c1c(n2CC(C)c2ccc(C)nc2)CCN(C)C1 (single isomer, unassigned) [289b]
Percentage inhibition of ligand binding, Adrenergic α1D ([1]; 0.1 µM): −2% | Percentage inhibition of ligand binding, Adrenergic α1B ([2]; compound at 0.1 μM, 0.1 µM): 12% | Percentage inhibition of ligand binding, Adrenergic α2B ([3]; compound at 0.1 μM): 54% | Percentage inhibition of ligand binding, Adrenergic α2A ([4]; compound at 0.1 μM, 0.1 µM): 53%

CCC(O)(Cn1c2c(c3cc(C)ccc31)CN(C)CC2)c1ccncc1 (stereo not shown) [35a]
Percentage inhibition of ligand binding, Adrenergic α1D (0.1 μM) [1]: 6% | Percentage inhibition of ligand binding, Adrenergic α1B (0.1 μM) ([2]; compound at 0.1 μM): 9% | Percentage inhibition of ligand binding, Adrenergic α2B (0.1 μM) [3, 6]: 62% | Percentage inhibition of ligand binding, Adrenergic α2A (0.1 μM) [4, 6]: 20%

Cc1ccc2c(c1)c1c(n2C(C)C(O)c2ccncc2)CCN(C)C1 (stereo not shown) [127b]
Percentage inhibition of ligand binding, Adrenergic α1B ([2]; 0.1 μM compound): 13% | Percentage inhibition of ligand binding, Adrenergic α2B ([3]; 0.03 μM compound, 0.03 µM): 1% | Percentage inhibition of ligand binding, Adrenergic α2A ([4]; 0.1 μM compound): 4%

Cc1ccc2c(c1)c1c(n2CC(C)(O)c2cccnc2)CNCC1 (stereo not shown) [128b]
Percentage inhibition of ligand binding, Adrenergic α1B ([2]; 0.1 μM compound, 0.1 µM): 45% | Percentage inhibition of ligand binding, Adrenergic α2B ([3]; 0.03 μM compound, 0.03 µM): 54% | Percentage inhibition of ligand binding, Adrenergic α2A ([4]; 0.1 μM compound, 0.1 µM): 22%

Cc1ccc2c(c1)c1c(n2CC(O)c2ccncc2C)CCN(C)C1 (stereo not shown) [133a]
Percentage inhibition of ligand binding, Adrenergic α1B ([2]; 0.1 μM compound, 0.1 µM): 57% | Percentage inhibition of ligand binding, Adrenergic α2B ([3]; 0.03 μM compound, 0.03 µM): 52% | Percentage inhibition of ligand binding, Adrenergic α2A ([4]; 0.1 μM compound, 0.1 µM): 13%

Cc1ccc2c(c1)c1c(n2CC(O)c2cn[nH]c2)CCN(C)C1 (stereo not shown) [II-106b]
Percentage inhibition of ligand binding, Adrenergic α1B (0.1 μM) ([2]; compound at 0.1 μM): 31% | Percentage inhibition of ligand binding, Adrenergic α2B (0.03 μM) ([3]; compound at 0.03 μM, repeat datapoints each shown): 36% | Percentage inhibition of ligand binding, Adrenergic α2A (0.1 μM) [4, 6]: 8%

Cc1ccc2c(c1)c1c(n2CC(O)c2ccc(C#N)cc2)CCNC1 (stereo not shown) [II-116]
inhibition at 0.1 µM ([2]; read-out: Percentage inhibition of ligand binding, Adrenergic α1B (0.1 μM), compound at 0.1 μM, repeat datapoints each shown): 4% | inhibition at 0.03 µM ([3]; read-out: Percentage inhibition of ligand binding, Adrenergic α2B (0.03 μM), compound at 0.03 μM, repeat datapoints each shown): 43% | inhibition at 0.1 µM ([4]; read-out: Percentage inhibition of ligand binding, Adrenergic α2A (0.1 μM), compound at 0.1 μM, repeat datapoints each shown): 3%

Cc1ccc2c(c1)c1c(n2CC(N)c2ccncc2)CC2CCC1N2C (stereo not shown) [compound 155]
inhibition at 0.1 µM ([2]; 0.1 μM compound, read-out: Percentage inhibition of ligand binding, Adrenergic α1B): 15% | inhibition at 0.03 µM ([3]; 0.03 μM compound, read-out: Percentage inhibition of ligand binding, Adrenergic α2B): 36% | inhibition at 0.1 µM ([4]; 0.1 μM compound, read-out: Percentage inhibition of ligand binding, Adrenergic α2A): 14%
